Experimental data published in patent US10065928B2, “Quinolinone compound and use thereof” (Sunshine Lake Pharma Co., Ltd., priority 2014, dated 2018).

Tested on: erythropoietin (EPO) production in Hep3B cells
Experiment: Activity in inducing erythropoietin (EPO) production in vitro, Hep3B cells, EPO ELISA
Format: cell-based
Conditions: Homo sapiens, 24 h, EPO in supernatant by ELISA
Procedure: The activities of compounds of the invention in inducing erythropoietin (EPO) production were assessed by using human live cancer cell strain Hep3B (ATCC: American type culture collection, Manassas, Va.). Hep3B cells seeded in a 96-well plate with a density of 2.5×10^4 cells/well were cultivated overnight in DMEM culture medium (Dulbecco's Modified Eagle's Medium) at 37° C. in the presence of 10% fetal bovine serum (FBS). The next day, the supernatant liquid of culture medium was abandoned by suction, and to the residue was added fresh DMEM (containing 0.5% DMSO, 0.5% FBS) containing compound of the invention with a series of concentrations (0.31160.00 μM) or containing solvent used for comparison. The cells were cultivated at 37° C. for 24 h. The supernatant liquid was collected and the EPO concentration of the supernatant was quantified by using human EPO ELISA kit (Abcam). The activity of each compound in inducing erythropoietin (EPO) production was represented by half maximal effective concentration (EC50).

Compound | EC50
Cn1c(=O)c(C(=O)NCC(=O)O)c(O)c2ccc(Oc3ccccc3Cl)cc21 [Example 48, 2-(7-(2-chlorophenoxy)-4-hydroxy-1-methyl-2-oxo-1,2-dihydroquinoline-3-carboxamido)acetic acid] | 6.6 µM
COc1ccccc1Oc1ccc2c(O)c(C(=O)NCC(=O)O)c(=O)n(C)c2c1 [Example 38, 2-(4-hydroxy-7-(2-methoxyphenoxy)-1-methyl-2-oxo-1,2-dihydroquinoline-3-carboxamido)acetic acid] | 8.85 µM
Cn1c(=O)c(C(=O)NCC(=O)O)c(O)c2cc(Oc3ccc4ccccc4c3)ccc21 [Example 9, 2-(4-hydroxy-1-methyl-6-(naphthalen-2-yloxy)-2-oxo-1,2-dihydroquinoline-3-carboxamido)acetic acid] | 2.52 µM
CN(C(=O)c1ccc2c(c1)c(O)c(C(=O)NCC(=O)O)c(=O)n2C)C(c1ccccc1)c1ccccc1 [Example 11, 2-(6-(benzhydryl(methyl)carbamoyl)-4-hydroxy-1-methyl-2-oxo-1,2-dihydroquinoline-3-carboxamido)acetic acid] | 10.2 µM
Cn1c(=O)c(C(=O)NCC(=O)O)c(O)c2ccc(Oc3cc(Cl)ccc3Cl)cc21 [Example 35, 2-(7-(2,5-dichlorophenoxy)-4-hydroxy-1-methyl-2-oxo-1,2-dihydroquinoline-3-carboxamido)acetic acid] | 2.25 µM
COc1cccc(Oc2ccc3c(O)c(C(=O)NCC(=O)O)c(=O)n(C)c3c2)c1 [Example 37, 2-(4-hydroxy-7-(3-methoxyphenoxy)-1-methyl-2-oxo-1,2-dihydroquinoline-3-carboxamido)acetic acid] | 6.26 µM
Cn1c(=O)c(C(=O)NCC(=O)O)c(O)c2ccc(Oc3ccc(F)c(Cl)c3)cc21 [Example 29, 2-(7-(3-chloro-4-fluorophenoxy)-4-hydroxy-1-methyl-2-oxo-1,2-dihydroquinoline-3-carboxamido)acetic acid] | 10.2 µM
Cn1c(=O)c(C(=O)NCC(=O)O)c(O)c2ccc(Oc3ccc(Cl)cc3Cl)cc21 [Example 31, 2-(7-(2,4-dichlorophenoxy)-4-hydroxy-1-methyl-2-oxo-1,2-dihydroquinoline-3-carboxamido)acetic acid] | 4.15 µM
Cn1c(=O)c(C(=O)NCC(=O)O)c(O)c2ccc(Oc3ccc(Cl)cc3F)cc21 [Example 21, 2-(7-(4-chloro-2-fluorophenoxy)-4-hydroxy-1-methyl-2-oxo-1,2-dihydroquinoline-3-carboxamido)acetic acid] | 5.75 µM
Cn1c(=O)c(C(=O)NCC(=O)O)c(O)c2ccc(Oc3cc(F)ccc3Cl)cc21 [Example 27, 2-(7-(2-chloro-5-fluorophenoxy)-4-hydroxy-1-methyl-2-oxo-1,2-dihydroquinoline-3-carboxamido)acetic acid] | 6.85 µM
Cn1c(=O)c(C(=O)NCC(=O)O)c(O)c2ccc(Oc3ccccc3OC(F)(F)F)cc21 [Example 40, 2-(4-hydroxy-1-methyl-2-oxo-7-(2-(trifluoromethoxy)phenoxy)-1,2-dihydroquinoline-3-carboxamido)acetic acid] | 4.06 µM
Cn1c(=O)c(C(=O)NCC(=O)O)c(O)c2ccc(Oc3cc(F)cc(F)c3)cc21 [Example 18, 2-(7-(3,5-difluorophenoxy)-4-hydroxy-1-methyl-2-oxo-1,2-dihydroquinoline-3-carboxamido)acetic acid] | 6.28 µM
Cn1c(=O)c(C(=O)NCC(=O)O)c(O)c2cc(S(=O)(=O)n3ccc4ccccc43)ccc21 [Example 7, 2-(6-((1H-indol-1-yl)sulfonyl)-4-hydroxy-1-methyl-2-oxo-1,2-dihydroquinoline-3-carboxamido)acetic acid] | 6.83 µM
Cn1c(=O)c(C(=O)NCC(=O)O)c(O)c2cc(Oc3ccccc3)ccc21 [Example 5, 2-(4-hydroxy-1-methyl-2-oxo-6-phenoxy-1,2-dihydroquinoline-3-carboxamido)acetic acid] | 4 µM
Cn1c(=O)c(C(=O)NCC(=O)O)c(O)c2ccc(Oc3cccc(F)c3)cc21 [Example 46, 2-(7-(3-fluorophenoxy)-4-hydroxy-1-methyl-2-oxo-1,2-dihydroquinoline-3-carboxamido)acetic acid] | 3.61 µM
Cn1c(=O)c(C(=O)NCC(=O)O)c(O)c2ccc(Oc3c(F)cccc3Cl)cc21 [Example 23, 2-(7-(2-chloro-6-fluorophenoxy)-4-hydroxy-1-methyl-2-oxo-1,2-dihydroquinoline-3-carboxamido)acetic acid] | 9.23 µM
Cn1c(=O)c(C(=O)NCC(=O)O)c(O)c2ccc(Oc3cccc(F)c3Cl)cc21 [Example 24, 2-(7-(2-chloro-3-fluorophenoxy)-4-hydroxy-1-methyl-2-oxo-1,2-dihydroquinoline-3-carboxamido)acetic acid] | 9.53 µM

Compound | EC50
Cn1c(=O)c(C(=O)NCC(=O)O)c(O)c2ccc(Oc3ccc(Cl)c(Cl)c3)cc21 [Example 33, 2-(7-(3,4-dichlorophenoxy)-4-hydroxy-1-methyl-2-oxo-1,2-dihydroquinoline-3-carboxamido)acetic acid] | 2.56 µM
Cn1c(=O)c(C(=O)NCC(=O)O)c(O)c2ccc(Oc3ccccc3F)cc21 [Example 45, 2-(7-(2-fluorophenoxy)-4-hydroxy-1-methyl-2-oxo-1,2-dihydroquinoline-3-carboxamido)acetic acid] | 6.02 µM
Cn1c(=O)c(C(=O)NCC(=O)O)c(O)c2ccc(Oc3cccc(Cl)c3)cc21 [Example 12, 2-(7-(3-chlorophenoxy)-4-hydroxy-1-methyl-2-oxo-1,2-dihydroquinoline-3-carboxamido)acetic acid] | 4.24 µM
Cn1c(=O)c(C(=O)NCC(=O)O)c(O)c2ccc(Oc3ccc(F)c(F)c3)cc21 [Example 17, 2-(7-(3,4-difluorophenoxy)-4-hydroxy-1-methyl-2-oxo-1,2-dihydroquinoline-3-carboxamido)acetic acid] | 3.16 µM
Cn1c(=O)c(C(=O)NCC(=O)O)c(O)c2ccc(Oc3ccc4ccccc4c3)cc21 [Example 8, 2-(4-hydroxy-1-methyl-7-(naphthalen-2-yloxy)-2-oxo-1,2-dihydroquinoline-3-carboxamido)acetic acid] | 1.63 µM
Cn1c(=O)c(C(=O)NCC(=O)O)c(O)c2ccc(Oc3ccc(Cl)c(F)c3)cc21 [Example 25, 2-(7-(4-chloro-3-fluorophenoxy)-4-hydroxy-1-methyl-2-oxo-1,2-dihydroquinoline-3-carboxamido)acetic acid] | 10.2 µM
Cn1c(=O)c(C(=O)NCC(=O)O)c(O)c2ccc(Oc3cccc(F)c3F)cc21 [Example 14, 2-(7-(2,3-difluorophenoxy)-4-hydroxy-1-methyl-2-oxo-1,2-dihydroquinoline-3-carboxamido)acetic acid] | 10.2 µM
Cn1c(=O)c(C(=O)NCC(=O)O)c(O)c2ccc(Oc3c(Cl)cccc3Cl)cc21 [Example 32, 2-(7-(2,6-dichlorophenoxy)-4-hydroxy-1-methyl-2-oxo-1,2-dihydroquinoline-3-carboxamido)acetic acid] | 3.63 µM
Cn1c(=O)c(C(=O)NCC(=O)O)c(O)c2ccc(Oc3cc(F)cc(Cl)c3)cc21 [Example 26, 2-(7-(3-chloro-5-fluorophenoxy)-4-hydroxy-1-methyl-2-oxo-1,2-dihydroquinoline-3-carboxamido)acetic acid] | 13.5 µM
Cn1c(=O)c(C(=O)NCC(=O)O)c(O)c2ccc(Oc3ccncc3)cc21 [Example 43, 2-(4-hydroxy-1-methyl-2-oxo-7-(pyridin-4-yloxy)-1,2-dihydroquinoline-3-carboxamido)acetic acid] | 28.9 µM
COc1ccc(Oc2ccc3c(O)c(C(=O)NCC(=O)O)c(=O)n(C)c3c2)cc1 [Example 36, 2-(4-hydroxy-7-(4-methoxyphenoxy)-1-methyl-2-oxo-1,2-dihydroquinoline-3-carboxamido)acetic acid] | 2.95 µM
Cn1c(=O)c(C(=O)NCC(=O)O)c(O)c2ccc(Oc3cc(Cl)cc(Cl)c3)cc21 [Example 34, 2-(7-(3,5-dichlorophenoxy)-4-hydroxy-1-methyl-2-oxo-1,2-dihydroquinoline-3-carboxamido)acetic acid] | 20.2 µM
O=C(O)CNC(=O)c1c(O)c2ccc(Oc3ccccc3)cc2n(CCC2CC2)c1=O [Example 42, 2-(1-(cyclopropylethyl)-4-hydroxy-2-oxo-7-phenoxy-1,2-dihydroquinoline-3-carboxamido)acetic acid] | 3.34 µM
Cn1c(=O)c(C(=O)NCC(=O)O)c(O)c2ccc(Oc3cccc(Cl)c3F)cc21 [Example 20, 2-(7-(3-chloro-2-fluorophenoxy)-4-hydroxy-1-methyl-2-oxo-1,2-dihydroquinoline-3-carboxamido)acetic acid] | 3.75 µM
Cn1c(=O)c(C(=O)NCC(=O)O)c(O)c2ccc(Oc3c(F)cccc3F)cc21 [Example 16, 2-(7-(2,6-difluorophenoxy)-4-hydroxy-1-methyl-2-oxo-1,2-dihydroquinoline-3-carboxamido)acetic acid] | 8.83 µM
Cn1c(=O)c(C(=O)NCC(=O)O)c(O)c2cc(F)c(Oc3ccccc3)cc21 [Example 39, 2-(6-fluoro-4-hydroxy-1-methyl-2-oxo-7-phenoxy-1,2-dihydroquinoline-3-carboxamido)acetic acid] | 4.89 µM
Cn1c(=O)c(C(=O)NCC(=O)O)c(O)c2ccc(Oc3ccc(F)cc3F)cc21 [Example 15, 2-(7-(2,4-difluorophenoxy)-4-hydroxy-1-methyl-2-oxo-1,2-dihydroquinoline-3-carboxamido)acetic acid] | 6.92 µM
